Measurements published in ChEMBL document CHEMBL5034001 (J Med Chem, 2021).
The source made the active and inactive calls. The calls are words filed in the database; no cut-off is given here.

Tests used:
[1] = biological target: Tyrosine-protein kinase Fer (Homo sapiens) (UniProt P16591); assay: Binding affinity to wild-type human partial length FER (S542 to T822 residues) expressed in bacterial expression system assessed as residual binding level at 100 nM by Kinomescan method relative to control
Chain of Tyrosine-protein kinase Fer (Homo sapiens) (P16591 whole entry, looked up, the tested form may be a part): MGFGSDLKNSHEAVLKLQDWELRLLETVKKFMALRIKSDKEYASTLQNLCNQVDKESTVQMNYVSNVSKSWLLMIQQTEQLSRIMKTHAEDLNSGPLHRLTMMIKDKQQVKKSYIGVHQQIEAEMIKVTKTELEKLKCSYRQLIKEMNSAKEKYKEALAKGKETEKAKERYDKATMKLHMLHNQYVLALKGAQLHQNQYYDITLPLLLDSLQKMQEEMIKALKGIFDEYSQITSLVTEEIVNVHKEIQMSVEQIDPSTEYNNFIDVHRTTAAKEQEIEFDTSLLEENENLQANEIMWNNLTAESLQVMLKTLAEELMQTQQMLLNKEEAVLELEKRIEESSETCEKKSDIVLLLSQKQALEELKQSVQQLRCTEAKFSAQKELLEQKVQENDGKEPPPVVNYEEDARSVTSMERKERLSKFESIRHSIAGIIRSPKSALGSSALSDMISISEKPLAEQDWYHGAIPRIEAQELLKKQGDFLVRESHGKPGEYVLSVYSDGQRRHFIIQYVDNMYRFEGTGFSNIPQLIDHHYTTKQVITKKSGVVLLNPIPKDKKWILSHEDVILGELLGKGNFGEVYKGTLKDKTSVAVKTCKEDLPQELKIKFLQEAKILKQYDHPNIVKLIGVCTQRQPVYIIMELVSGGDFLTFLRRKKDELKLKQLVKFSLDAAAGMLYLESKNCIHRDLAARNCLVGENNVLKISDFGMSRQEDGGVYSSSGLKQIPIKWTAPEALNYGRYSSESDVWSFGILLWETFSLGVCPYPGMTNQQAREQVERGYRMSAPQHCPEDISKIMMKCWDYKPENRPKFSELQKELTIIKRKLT

[2] = Half life in […] at 10 mg/kg, po or 2 mg/kg, iv measured upto 24 hrs; format: ADME, organism-based; details: in vivo
[3] = test system: Mast/stem cell growth factor receptor Kit (Homo sapiens), P10721 [D816V]; assay: Binding affinity to human partial length KIT D816V mutant (I571 to D952 residues) expressed in bacterial expression system assessed as residual binding level at 100 nM by Kinomescan method relative to control
[4] = biological target: Ribosomal protein S6 kinase alpha-3 (Homo sapiens) (UniProt P51812); assay: Binding affinity to wild-type human partial length N- terminal RSK2 kinase domain 1 (M1 to D394 residues) expressed in mammalian expression system assessed as residual binding level at 100 nM by Kinomescan method relative to control
Chain of Ribosomal protein S6 kinase alpha-3 (Homo sapiens) (P51812 whole entry, the tested form may be a part): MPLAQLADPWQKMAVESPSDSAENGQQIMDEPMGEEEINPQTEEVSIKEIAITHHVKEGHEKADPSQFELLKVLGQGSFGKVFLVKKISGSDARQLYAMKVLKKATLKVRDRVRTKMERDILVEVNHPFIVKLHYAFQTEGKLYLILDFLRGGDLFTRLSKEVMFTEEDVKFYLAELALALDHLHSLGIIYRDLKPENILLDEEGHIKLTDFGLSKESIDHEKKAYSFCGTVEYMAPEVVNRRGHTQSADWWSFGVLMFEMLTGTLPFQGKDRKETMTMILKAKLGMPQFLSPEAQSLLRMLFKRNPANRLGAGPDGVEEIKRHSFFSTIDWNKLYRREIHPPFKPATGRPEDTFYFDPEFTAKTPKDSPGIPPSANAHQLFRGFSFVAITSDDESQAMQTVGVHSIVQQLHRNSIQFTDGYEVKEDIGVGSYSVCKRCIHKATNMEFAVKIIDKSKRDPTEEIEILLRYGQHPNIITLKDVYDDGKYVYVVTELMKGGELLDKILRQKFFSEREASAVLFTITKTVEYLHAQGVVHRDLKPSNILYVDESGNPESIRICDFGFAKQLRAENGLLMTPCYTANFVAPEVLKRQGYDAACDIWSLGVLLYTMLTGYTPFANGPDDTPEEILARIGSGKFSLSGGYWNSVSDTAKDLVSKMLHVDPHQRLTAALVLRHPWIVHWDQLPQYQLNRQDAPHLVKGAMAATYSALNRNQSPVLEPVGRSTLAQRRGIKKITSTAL

SR [5] = assay: Down regulation of FER in human SR cells at 0.1 to 1000 nM after 16 hrs by Western blot analysis; format: functional, cell-based; details: dose 0.1-1000 nM
[6] = biological target: T1, ALK tyrosine kinase receptor (Homo sapiens, UniProt Q9UM73); assay: Binding affinity to wild-type human partial length ALK (I1088 to E1409 residues) expressed in mammalian expression system assessed as residual binding level at 100 nM by Kinomescan method relative to control
T1 sequence (Q9UM73 19-1620 limits assumed): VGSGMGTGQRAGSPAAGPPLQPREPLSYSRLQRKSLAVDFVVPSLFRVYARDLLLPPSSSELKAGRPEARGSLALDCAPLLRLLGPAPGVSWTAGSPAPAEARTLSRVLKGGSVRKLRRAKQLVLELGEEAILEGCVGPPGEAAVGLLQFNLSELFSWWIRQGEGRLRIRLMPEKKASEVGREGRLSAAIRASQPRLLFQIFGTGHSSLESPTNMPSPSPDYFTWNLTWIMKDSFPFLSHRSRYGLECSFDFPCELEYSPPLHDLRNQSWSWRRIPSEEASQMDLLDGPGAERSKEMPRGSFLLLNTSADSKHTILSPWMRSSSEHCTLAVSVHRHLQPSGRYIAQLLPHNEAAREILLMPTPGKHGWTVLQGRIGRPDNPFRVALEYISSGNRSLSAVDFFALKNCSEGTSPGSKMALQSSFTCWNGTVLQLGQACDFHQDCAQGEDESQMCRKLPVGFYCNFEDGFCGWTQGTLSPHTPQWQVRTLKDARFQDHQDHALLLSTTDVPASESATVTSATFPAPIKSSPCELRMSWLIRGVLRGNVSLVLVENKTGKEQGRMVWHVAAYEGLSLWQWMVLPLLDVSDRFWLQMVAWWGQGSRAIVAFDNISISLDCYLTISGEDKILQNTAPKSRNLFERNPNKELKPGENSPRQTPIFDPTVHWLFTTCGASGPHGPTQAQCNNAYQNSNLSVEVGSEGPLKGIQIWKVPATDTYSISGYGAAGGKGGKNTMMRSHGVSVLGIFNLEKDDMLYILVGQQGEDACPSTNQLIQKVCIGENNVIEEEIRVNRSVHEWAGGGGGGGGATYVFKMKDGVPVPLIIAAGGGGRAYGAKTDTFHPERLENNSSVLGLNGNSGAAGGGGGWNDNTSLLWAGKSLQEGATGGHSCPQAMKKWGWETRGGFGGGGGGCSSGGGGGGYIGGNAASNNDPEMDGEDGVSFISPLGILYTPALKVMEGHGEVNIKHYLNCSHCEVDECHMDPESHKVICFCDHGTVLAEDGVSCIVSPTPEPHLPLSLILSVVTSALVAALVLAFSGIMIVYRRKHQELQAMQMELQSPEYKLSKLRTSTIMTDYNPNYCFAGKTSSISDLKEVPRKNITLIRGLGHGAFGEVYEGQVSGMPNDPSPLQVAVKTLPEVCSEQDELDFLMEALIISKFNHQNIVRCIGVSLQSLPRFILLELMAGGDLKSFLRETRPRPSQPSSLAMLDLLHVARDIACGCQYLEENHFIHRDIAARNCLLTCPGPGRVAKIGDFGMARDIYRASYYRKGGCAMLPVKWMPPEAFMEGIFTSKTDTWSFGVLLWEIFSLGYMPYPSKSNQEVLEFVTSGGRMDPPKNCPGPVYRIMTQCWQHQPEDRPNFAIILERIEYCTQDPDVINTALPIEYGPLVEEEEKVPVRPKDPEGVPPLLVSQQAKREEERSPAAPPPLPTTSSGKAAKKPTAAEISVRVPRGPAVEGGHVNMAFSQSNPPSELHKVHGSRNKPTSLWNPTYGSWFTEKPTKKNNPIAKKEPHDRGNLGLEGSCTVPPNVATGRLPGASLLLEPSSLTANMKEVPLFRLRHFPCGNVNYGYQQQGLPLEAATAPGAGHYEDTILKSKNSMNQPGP

[7] = Metabolic stability in human liver microsomes preincubated for 10 mins followed by NADPH regenerating system addition and measured after 10 mins by LC-MS/MS analysis; format: ADME, Microsome; details: time 20 min, read-out: Stability
[8] = biological target: Tyrosine-protein kinase receptor UFO (Homo sapiens) (UniProt P30530); assay: Binding affinity to wild-type human partial length AXL (R497 to Y821 residues) expressed in bacterial expression system assessed as residual binding level at 100 nM by Kinomescan method relative to control
Chain of Tyrosine-protein kinase receptor UFO (Homo sapiens) (P30530 whole entry, the tested form may be a part): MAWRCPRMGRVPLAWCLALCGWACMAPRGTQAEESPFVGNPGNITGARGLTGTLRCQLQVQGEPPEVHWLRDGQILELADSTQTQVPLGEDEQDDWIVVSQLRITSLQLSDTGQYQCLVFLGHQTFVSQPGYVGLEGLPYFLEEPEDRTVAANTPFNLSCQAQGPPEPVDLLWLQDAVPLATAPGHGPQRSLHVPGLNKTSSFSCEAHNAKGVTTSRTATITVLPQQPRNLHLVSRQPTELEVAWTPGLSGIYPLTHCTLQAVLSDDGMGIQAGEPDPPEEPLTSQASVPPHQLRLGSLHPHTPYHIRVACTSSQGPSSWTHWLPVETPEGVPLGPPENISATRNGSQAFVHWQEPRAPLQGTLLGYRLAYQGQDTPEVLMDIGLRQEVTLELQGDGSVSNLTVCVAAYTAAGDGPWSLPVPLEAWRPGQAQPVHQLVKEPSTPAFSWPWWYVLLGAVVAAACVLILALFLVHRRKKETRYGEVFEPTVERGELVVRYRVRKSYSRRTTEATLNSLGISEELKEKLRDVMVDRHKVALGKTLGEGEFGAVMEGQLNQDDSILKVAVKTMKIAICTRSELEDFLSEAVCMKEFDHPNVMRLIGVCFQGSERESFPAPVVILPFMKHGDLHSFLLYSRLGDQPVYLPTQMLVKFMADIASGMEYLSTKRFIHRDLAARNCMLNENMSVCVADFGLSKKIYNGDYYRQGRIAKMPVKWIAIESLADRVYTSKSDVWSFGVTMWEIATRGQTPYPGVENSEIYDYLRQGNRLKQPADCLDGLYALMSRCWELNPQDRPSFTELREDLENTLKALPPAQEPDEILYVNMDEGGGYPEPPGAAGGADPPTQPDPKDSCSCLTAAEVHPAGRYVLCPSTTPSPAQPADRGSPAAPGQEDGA

[9] = biological target: Serine/threonine-protein kinase 33 (Homo sapiens) (UniProt Q9BYT3); assay: Binding affinity to wild-type human full length STK33 (M1 to L514 residues) expressed in bacterial expression system assessed as residual binding level at 100 nM by Kinomescan method relative to control
[10] = Metabolic stability in CD-1 mouse liver microsomes preincubated for 10 mins followed by NADPH regenerating system addition and measured after 10 mins by LC-MS/MS analysis; format: ADME, Microsome; details: time 20 min, read-out: Stability
[11] = AUC in […] at 10 mg/kg, po or 2 mg/kg, iv measured upto 24 hrs; format: ADME, organism-based; parameters: dose 10 mg/kg, time <=24; details: in vivo
[12] = biological target: Protein-tyrosine kinase 2-beta (Homo sapiens) (UniProt Q14289); assay: Induction of PYK2 degradation in human SR cells at 1 nM after 16 hrs by Western blot analysis; format: cell-based
Chain of Protein-tyrosine kinase 2-beta (Homo sapiens) (Q14289 whole entry, looked up): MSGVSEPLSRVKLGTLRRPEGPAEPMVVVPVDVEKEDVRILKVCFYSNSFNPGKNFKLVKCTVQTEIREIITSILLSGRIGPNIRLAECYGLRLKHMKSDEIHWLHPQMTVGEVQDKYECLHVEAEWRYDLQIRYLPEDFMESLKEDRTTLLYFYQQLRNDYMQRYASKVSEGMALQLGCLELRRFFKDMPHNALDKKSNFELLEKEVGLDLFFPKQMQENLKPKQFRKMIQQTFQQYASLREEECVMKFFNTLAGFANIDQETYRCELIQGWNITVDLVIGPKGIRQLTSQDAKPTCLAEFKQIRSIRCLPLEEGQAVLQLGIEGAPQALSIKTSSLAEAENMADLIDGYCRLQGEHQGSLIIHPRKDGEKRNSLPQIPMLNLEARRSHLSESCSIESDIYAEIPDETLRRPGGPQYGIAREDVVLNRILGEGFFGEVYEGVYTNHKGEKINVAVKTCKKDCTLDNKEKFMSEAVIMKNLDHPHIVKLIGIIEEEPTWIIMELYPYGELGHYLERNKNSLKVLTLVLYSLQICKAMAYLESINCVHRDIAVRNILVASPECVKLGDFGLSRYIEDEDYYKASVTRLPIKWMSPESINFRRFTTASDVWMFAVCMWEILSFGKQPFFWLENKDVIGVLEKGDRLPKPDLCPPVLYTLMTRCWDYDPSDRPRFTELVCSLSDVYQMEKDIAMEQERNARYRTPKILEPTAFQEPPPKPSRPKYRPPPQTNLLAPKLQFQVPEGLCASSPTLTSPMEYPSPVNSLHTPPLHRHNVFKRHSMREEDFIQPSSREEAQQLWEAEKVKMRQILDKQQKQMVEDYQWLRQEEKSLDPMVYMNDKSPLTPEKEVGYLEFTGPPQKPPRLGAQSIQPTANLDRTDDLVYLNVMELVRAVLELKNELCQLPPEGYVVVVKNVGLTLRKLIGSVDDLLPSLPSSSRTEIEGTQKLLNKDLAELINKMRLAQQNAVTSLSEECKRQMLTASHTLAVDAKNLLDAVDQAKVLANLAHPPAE

[13] = Metabolic stability in human liver microsomes assessed as intrinsic clearance preincubated for 10 mins followed by NADPH regenerating system addition and measured after 10 mins by LC-MS/MS analysis; format: ADME, Microsome; details: time 20 min, read-out: CLH
Calu-1 = assay: Inhibition of cell migration in human Calu-1 cells at 100 nM after 12 to 24 hrs by wound healing assay; format: functional, cell-based; details: time lower […], time upper 24.0 hrs
[14] = test system: Epidermal growth factor receptor (Homo sapiens), P00533 [L858R,T790M]; assay: Induction of EGFR L858R/T790M mutant degradation in human […] at 100 nM by Western blot analysis; format: cell-based
[15] = test system: Receptor-type tyrosine-protein kinase FLT3 (Homo sapiens), P36888 [D835V]; assay: Binding affinity to human partial length FLT3 D835V mutant (V592 to Y969 residues) expressed in bacterial expression system assessed as residual binding level at 100 nM by Kinomescan method relative to control
[16] = Toxicity in NU/NU mouse at 100 mg/kg; format: organism-based; details: in vivo
[17] = test system: Receptor-type tyrosine-protein kinase FLT3 (Homo sapiens), P36888 [UNDEFINED MUTATION]; assay: Binding affinity to human partial length FLT3 ITD/D835V double mutant expressed in bacterial expression system assessed as residual binding level at 100 nM by Kinomescan method relative to control
[18] = biological target: Signal transducer and activator of transcription 3 (Homo sapiens) (UniProt P40763); assay: Inhibition of STAT3 downstream signalling in human NCI-H2228 cells assessed as reduction in pSTAT3 level at 1 to 1000 nM by Western blot analysis; format: cell-based; details: dose 1-1000 nM
[19] = test system: Leucine-rich repeat serine/threonine-protein kinase 2 (Homo sapiens), Q5S007 [G2019S]; assay: Binding affinity to human partial length LRRK2 G2019S mutant (H970 to E2527 residues) expressed in mammalian expression system assessed as residual binding level at 100 nM by Kinomescan method relative to control
[20] = biological target: T1, ALK tyrosine kinase receptor; assay: Induction of ALK degradation in human SR cells at 100 nM after 8 to 24 hrs by Western blot analysis; format: cell-based; details: time 8-24 hrs
SR [21] = assay: Induction of G1 cell cycle arrest in human SR cells at 100 nM after 24 to 48 hrs; format: functional, cell-based; details: time 24-48 hrs
[22] = biological target: T1, ALK tyrosine kinase receptor; assay: Induction of ALK degradation in human SR cells at 100 nM pretreated with proteosome inhibitor MLN4924 for 4 hrs followed by compound addition and measured after 16 hrs by Western blot analysis; format: cell-based

COc1cc(N2CCC(N3CCN(C(=O)CNc4cccc5c4C(=O)N(C4CCC(=O)NC4=O)C5=O)CC3)CC2)ccc1Nc1ncc(Cl)c(Nc2ccccc2P(C)(C)=O)n1 (stereo not drawn)
Activity [1]: 4.1% | half-life [2]: 7.1 h | Activity [3]: 8.1% | Activity [4]: 2.1% | Activity (SR [5]): Active | Activity [6]: 5.3% | microsomal CLint [7]: < 9.6 µL/min/mg | Activity [8]: 9.5% | Activity [9]: 2.3% | microsomal CLint [10]: 16.7 µL/min/mg | AUC at 24 h [11]: 1560 ng·h/mL | Activity [12]: Active | CLint scaled [13]: 22.6 mL/min/kg | inhibition (Calu-1): Active | Activity [14]: Active | Activity [15]: 0% | Activity [16]: Non-Toxic | Activity [17]: 1% | inhibition [18]: inactive | Activity [19]: 0% | Activity [20]: Active | Activity (SR [21]): Active | Activity [22]: inactive
